From PMC3639963, “A New Class of Small Molecule Inhibitor of BMP Signaling” (PLoS ONE, 2013) come the findings set out here.

By inhibition is commonly meant the change of the read-out against control, counted positive when it falls.

The target in assay [1] is T1, MAP4K4 (Homo sapiens, UniProt O95819).
T1 construct: purchased Nanosyn (enzymatic panel); SGC in-house recombinant human kinases (DSF panel); Invitrogen (ALK1-6)
Nature of the assay: Nanosyn kinase profiling. The class given is biochemical. As to conditions: read-out: Percentage inhibition. How it is done:
(§1) Percentage inhibition was determined for each kinase at both 0.1 µM and 1 µM inhibitor concentration (supplemental Table S2).
(§2) Inhibitor selectivity profiling against 200 human kinases at 0.1 and 1 µM inhibitor concentration was performed by Nanosyn (www.nanosyn.com).

The target in assay [2] is T2, FLT3 (Homo sapiens, UniProt P36888).
T2 construct: purchased Nanosyn (enzymatic panel); SGC in-house recombinant human kinases (DSF panel); Invitrogen (ALK1-6)
Nature of the assay: Nanosyn kinase profiling. The class given is biochemical. Conditions: read-out: Percentage inhibition. Here is the method:
as §1, §2

Assay [3] deals with T3, BRAF (Homo sapiens, UniProt P15056).
T3 construct: purchased Nanosyn (enzymatic panel); SGC in-house recombinant human kinases (DSF panel); Invitrogen (ALK1-6)
Nature of the assay: Nanosyn kinase profiling. Conditions: read-out: Percentage inhibition. The format is biochemical. Here is the method: as §1, §2

Assay [4] has as its target T4, MINK (Homo sapiens, UniProt Q8N4C8).
T4 construct: purchased Nanosyn (enzymatic panel); SGC in-house recombinant human kinases (DSF panel); Invitrogen (ALK1-6)
Nature of the assay: Nanosyn kinase profiling. The format is biochemical. Conditions: read-out: Percentage inhibition. Here is the method:
as §1, §2

The target of assay [5] is T5, FMS (Homo sapiens, UniProt P07333).
T5 construct: purchased Nanosyn (enzymatic panel); SGC in-house recombinant human kinases (DSF panel); Invitrogen (ALK1-6)
Briefly: Nanosyn kinase profiling. Conditions: read-out: Percentage inhibition. The format is biochemical. How it is done:
as §1, §2

Assay [6] has as its system TGF-β-induced phosphorylation of Smad2 in C2C12 cells. Nature of the assay: TGF-β-induced phosphorylation of Smad2, Western blot. The class given is cell-based. Conditions: qualitative. Here is the method:
(§3) C2C12 and HEK293 cells were grown in DMEM supplemented with 10% FCS (PAA) and seeded at a density of 1 x 10^5 cells per well in 6-well plates. The next day the cells were starved in DMEM containing 1% FCS for 5 hours. Inhibitors were added at the indicated concentrations for 30 minutes followed by 10 ng/mL BMP4 (Peprotech), 100 ng/mL BMP6 (Peprotech), 100 ng/mL Activin A (Peprotech) or 2 ng/mL TGF-β1 (Cell Signaling) for 1 hour. Cells were washed in PBS and lysed on ice for 30 minutes in lysis buffer (20 mM Tris-HCl pH 7.5, 150 mM NaCl, 1% Triton X-100, 25 mM NaF, 25 mM Na β-glycerophosphate, 2 mM Na3VO4) containing protease inhibitors (Roche). Protein concentration in the clarified lysate was determined by Bradford Assay (Pierce) and 15 µg run on 4–12% Bis-Tris gel (Biorad). The protein was transferred onto nitrocellulose membrane (GE Healthcare) and probed with the relevant antibody at 4°C overnight (Cell Signaling: anti-Smad 1 (#9743), anti-P-Smad 1/5/8 (#9511), anti-Smad 2 (#5339), anti-P-Smad 2 (#3101). After subsequent incubation with HRP-conjugated anti-rabbit antibody, protein bands were detected using ECL (Pierce) and an LAS4000 image reader. Cells were purchased originally from the European Collection of Cell Cultures (ECACC) available through Sigma.
Background: A western blot detects proteins with antibodies after separation by electrophoresis.

Assay [7] concerns BMP6-induced Smad1/5/8 phosphorylation in C2C12 cells. Briefly: BMP6-induced Smad1/5/8 phosphorylation, Western blot. The class given is cell-based. Conditions: for inhibition of BMP6-induced Smad1/5/8 phosphorylation: qualitative. How it is done: as §3
Assay [8] concerns the target ActRIIA (ACVR2) (Homo sapiens, UniProt P27037). Nature of the assay: Kinase-Glo assay. Conditions: at the Km value of ATP, duplicate. The class given is biochemical. Here is the method:
A kinase assay for ActRIIA (ACVR2) was performed using Kinase-Glo® (Promega) as per manufacturer’s instructions. […] Inhibitors were added at concentrations between 0 and 10 µM in kinase reaction buffer and tested in duplicate. At 15 min, 30 min, 1 hr, 2 hr, and 3 hr 20 µL aliquots of the reaction mixture was transferred to a 384-well plate and 20 µL of Kinase-Glo® was added and allowed to rest for 10 min to quench the reaction and produce light which was measured using a Spectramax L luminometer (Molecular Devices).
(Kinase-Glo reads ATP consumption through a luciferase reaction.)

For assay [9], the system named is mRFP under control of a BMP response element. Nature of the assay: Western blot for mRFP in Tg(BRE:mRFP) embryos. The format is in vivo, zebrafish. As to conditions: 26 hours old embryos. Here is the method: Inhibitor stocks were diluted in DMSO and then further diluted in fish water to give the required inhibitor concentrations. To minimize the amount of inhibitors used, experiments were performed in 24-well plates with approximately 20 embryos per well in a volume of 1 mL. The chemical treatment was applied by immersing 8- to 16-cell stage Tg(BRE:mRFP) embryos (dorsalization experiment) or 12 hours old Tg(fli1a:eGFP) embryos (ISV experiment) in the fish water supplemented with DMSO or the chemical inhibitors. For the ISV experiment, embryos were manually dechorionated after bud stage before treatment. Embryos were scored and photographed at 26 or 48 hours.
Ten non-dechorionated 26 hours old treated Tg(BRE:mRFP) embryos were snap frozen on dry ice and stored at −80°C. Protein extracts were prepared as described previously for Xenopus embryos. Extraction buffer was freshly prepared. 10 µL per embryo of the protein extract buffer was used to lyse the embryos using a plastic pestle and a pellet pestle motor (Kontes). 40 µg (∼ 1 embryo equivalent) of protein extract was loaded per lane on a 12.5% SDS-PAGE gel. The rabbit anti-mRFP (Invitrogen, R10367) and the goat anti-MCM6 (Santa Cruz, sc-9843) antibodies were used for Western blots.

Assay [10] deals with BMP4 induced Smad1/5/8 phosphorylation in C2C12 cells. Nature of the assay: BMP4 induced Smad1/5/8 phosphorylation, Western blot. The format is cell-based. Conditions: for IC50: Mus musculus. Here is the method:
as §3

Assay [11] has as its target T6, ALK1 (Homo sapiens, UniProt P37023).
T6 construct: purchased Nanosyn (enzymatic panel); SGC in-house recombinant human kinases (DSF panel); Invitrogen (ALK1-6)
Briefly: In vitro kinase assay ([γ-32P]ATP). The format is biochemical. Conditions: at the Km value of ATP; triplicate. How it is done:
Inhibitors were added at concentrations between 0 and 10 µM in kinase reaction buffer and tested in triplicate.

Assay [12] deals with BMP4 response (BRE-luciferase) in C2C12 cells. Nature of the assay: BRE-luciferase reporter assay. The format is cell-based. Here is the method: C2C12 cells were co-transfected using lipofectamine 2000 with BRE-luciferase and Renilla Luciferase pRLTK (Promega) following the manufacturer’s instructions. 16 hours post transfection cells were starved in DMEM containing 1% FCS for 5 hours. Inhibitors were added to triplicate wells at the indicated concentrations for 30 minutes, followed by overnight stimulation with 10 ng/ml BMP4 (Peprotech). Luciferase activities were determined according to the Dual-Luciferase® Reporter Assay System (Promega) using Renilla for normalization of transfection efficiency.
Background: In a reporter assay the amount or activity of a reporter protein is the signal.

Values joined by “and” are separate entries in the source; they are usually repeats but may differ in a detail not shown here. Identical values can stand only once. Like-named read-outs stand apart in the source and are kept apart here.

T1 sequence (O95819 whole entry): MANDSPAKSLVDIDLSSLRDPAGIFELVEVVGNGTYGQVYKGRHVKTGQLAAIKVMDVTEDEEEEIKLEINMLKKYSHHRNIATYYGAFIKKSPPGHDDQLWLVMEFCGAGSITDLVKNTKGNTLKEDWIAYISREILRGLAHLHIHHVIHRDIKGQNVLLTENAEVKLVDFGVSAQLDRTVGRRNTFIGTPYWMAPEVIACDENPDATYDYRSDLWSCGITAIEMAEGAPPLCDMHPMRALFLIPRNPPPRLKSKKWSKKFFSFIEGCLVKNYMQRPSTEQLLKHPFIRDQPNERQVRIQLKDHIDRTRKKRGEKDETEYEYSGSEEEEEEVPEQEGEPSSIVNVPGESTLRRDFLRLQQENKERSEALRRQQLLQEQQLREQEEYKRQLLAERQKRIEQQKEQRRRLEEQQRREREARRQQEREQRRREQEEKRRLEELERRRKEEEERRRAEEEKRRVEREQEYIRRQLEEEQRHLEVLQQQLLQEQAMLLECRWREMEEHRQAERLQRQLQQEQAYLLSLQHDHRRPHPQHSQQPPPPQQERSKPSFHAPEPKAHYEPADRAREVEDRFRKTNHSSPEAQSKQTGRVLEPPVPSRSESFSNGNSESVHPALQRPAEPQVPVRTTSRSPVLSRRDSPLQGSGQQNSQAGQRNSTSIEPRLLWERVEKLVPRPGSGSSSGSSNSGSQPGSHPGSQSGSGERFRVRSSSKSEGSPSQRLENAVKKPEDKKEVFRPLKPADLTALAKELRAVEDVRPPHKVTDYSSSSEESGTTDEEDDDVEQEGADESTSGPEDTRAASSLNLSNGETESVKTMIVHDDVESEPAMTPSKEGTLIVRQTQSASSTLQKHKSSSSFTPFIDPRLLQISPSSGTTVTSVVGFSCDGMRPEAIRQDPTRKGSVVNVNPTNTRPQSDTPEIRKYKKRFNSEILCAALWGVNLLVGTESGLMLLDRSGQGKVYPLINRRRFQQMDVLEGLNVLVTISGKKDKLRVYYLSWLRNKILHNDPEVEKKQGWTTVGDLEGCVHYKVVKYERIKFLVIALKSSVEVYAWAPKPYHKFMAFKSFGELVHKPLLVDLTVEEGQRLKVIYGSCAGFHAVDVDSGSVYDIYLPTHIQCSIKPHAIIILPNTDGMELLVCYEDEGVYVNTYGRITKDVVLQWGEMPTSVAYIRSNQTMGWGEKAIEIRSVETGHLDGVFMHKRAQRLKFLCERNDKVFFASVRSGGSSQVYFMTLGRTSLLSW
T3 sequence (P15056 whole entry): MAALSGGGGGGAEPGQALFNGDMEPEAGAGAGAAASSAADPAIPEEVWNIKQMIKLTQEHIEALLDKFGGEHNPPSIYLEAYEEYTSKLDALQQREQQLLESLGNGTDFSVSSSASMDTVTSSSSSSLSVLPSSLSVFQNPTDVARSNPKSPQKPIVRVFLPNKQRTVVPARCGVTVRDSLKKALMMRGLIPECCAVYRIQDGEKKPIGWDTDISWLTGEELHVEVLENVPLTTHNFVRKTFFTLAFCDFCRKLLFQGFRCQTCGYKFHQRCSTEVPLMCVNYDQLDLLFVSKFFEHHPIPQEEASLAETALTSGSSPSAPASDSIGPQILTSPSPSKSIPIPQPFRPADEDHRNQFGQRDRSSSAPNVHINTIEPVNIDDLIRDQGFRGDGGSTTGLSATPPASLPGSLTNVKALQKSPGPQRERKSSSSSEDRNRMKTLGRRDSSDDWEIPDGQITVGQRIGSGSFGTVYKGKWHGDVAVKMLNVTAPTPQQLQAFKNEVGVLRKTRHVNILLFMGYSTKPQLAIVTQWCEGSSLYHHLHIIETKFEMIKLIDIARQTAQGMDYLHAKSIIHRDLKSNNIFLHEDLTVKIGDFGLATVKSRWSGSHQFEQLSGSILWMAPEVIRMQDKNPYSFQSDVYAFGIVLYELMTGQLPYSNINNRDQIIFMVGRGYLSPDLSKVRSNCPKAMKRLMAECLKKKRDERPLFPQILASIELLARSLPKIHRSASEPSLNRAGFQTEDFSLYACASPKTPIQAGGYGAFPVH
T2 sequence (P36888 27-993): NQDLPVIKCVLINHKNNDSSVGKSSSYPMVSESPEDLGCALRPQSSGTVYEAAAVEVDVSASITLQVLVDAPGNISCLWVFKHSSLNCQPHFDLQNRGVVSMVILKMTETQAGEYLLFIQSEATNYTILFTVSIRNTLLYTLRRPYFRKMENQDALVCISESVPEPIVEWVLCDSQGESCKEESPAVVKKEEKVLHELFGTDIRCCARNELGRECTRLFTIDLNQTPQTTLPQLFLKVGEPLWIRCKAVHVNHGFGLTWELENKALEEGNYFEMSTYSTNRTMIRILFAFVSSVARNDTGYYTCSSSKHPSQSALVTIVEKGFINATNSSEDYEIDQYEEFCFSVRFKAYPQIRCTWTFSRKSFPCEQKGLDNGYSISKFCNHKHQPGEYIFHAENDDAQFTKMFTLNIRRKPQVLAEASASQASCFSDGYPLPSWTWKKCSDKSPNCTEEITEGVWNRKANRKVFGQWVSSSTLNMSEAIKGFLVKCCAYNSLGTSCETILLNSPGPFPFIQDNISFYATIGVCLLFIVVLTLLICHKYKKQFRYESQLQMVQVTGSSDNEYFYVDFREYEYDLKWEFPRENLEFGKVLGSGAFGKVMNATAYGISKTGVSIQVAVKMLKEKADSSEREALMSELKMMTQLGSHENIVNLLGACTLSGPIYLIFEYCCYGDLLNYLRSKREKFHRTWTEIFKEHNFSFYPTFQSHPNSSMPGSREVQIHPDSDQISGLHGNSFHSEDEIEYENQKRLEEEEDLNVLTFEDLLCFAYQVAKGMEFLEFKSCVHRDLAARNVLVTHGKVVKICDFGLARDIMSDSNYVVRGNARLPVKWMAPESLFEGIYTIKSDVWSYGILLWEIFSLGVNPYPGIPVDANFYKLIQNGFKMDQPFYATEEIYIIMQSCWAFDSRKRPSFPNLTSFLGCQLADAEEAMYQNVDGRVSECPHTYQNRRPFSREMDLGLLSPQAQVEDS
T5 sequence (P07333 20-972): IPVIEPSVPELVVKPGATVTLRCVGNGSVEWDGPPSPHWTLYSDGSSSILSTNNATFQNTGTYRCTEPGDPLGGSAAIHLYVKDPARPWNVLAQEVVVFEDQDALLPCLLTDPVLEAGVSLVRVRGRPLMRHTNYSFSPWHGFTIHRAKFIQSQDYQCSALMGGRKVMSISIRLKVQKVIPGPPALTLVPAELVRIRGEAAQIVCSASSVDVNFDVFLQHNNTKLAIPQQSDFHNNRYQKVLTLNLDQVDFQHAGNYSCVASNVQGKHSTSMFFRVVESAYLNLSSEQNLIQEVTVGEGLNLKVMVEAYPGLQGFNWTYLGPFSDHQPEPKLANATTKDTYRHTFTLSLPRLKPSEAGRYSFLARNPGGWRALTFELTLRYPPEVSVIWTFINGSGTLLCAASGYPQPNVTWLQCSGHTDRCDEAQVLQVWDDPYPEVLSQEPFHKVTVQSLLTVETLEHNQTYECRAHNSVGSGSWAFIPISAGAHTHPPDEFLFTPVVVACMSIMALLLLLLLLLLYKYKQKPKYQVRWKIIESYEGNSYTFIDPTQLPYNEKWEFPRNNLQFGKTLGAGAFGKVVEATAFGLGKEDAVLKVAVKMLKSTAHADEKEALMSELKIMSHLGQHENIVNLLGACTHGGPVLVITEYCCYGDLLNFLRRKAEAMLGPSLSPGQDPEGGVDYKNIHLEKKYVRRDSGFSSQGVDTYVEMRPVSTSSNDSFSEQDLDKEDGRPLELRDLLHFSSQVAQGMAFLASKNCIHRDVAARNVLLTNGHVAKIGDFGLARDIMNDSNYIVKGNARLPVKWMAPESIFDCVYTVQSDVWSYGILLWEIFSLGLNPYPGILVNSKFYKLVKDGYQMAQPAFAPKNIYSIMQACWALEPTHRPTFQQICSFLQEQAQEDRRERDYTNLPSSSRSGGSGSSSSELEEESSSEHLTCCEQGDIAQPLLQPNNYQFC
Chain of ActRIIA (ACVR2) (P27037 20-513): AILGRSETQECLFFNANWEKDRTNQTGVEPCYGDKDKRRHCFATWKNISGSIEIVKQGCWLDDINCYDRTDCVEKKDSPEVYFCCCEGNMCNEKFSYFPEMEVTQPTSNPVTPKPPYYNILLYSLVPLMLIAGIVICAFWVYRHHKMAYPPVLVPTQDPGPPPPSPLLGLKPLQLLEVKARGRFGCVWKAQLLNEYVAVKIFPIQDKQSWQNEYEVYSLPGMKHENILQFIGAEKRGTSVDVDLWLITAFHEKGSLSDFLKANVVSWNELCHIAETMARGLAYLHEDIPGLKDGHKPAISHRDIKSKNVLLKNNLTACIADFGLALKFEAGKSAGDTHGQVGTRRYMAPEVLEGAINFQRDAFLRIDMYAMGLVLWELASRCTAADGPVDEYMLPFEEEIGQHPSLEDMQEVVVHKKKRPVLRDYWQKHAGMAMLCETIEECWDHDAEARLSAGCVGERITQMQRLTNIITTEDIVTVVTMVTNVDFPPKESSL
T6 sequence (P37023 22-503): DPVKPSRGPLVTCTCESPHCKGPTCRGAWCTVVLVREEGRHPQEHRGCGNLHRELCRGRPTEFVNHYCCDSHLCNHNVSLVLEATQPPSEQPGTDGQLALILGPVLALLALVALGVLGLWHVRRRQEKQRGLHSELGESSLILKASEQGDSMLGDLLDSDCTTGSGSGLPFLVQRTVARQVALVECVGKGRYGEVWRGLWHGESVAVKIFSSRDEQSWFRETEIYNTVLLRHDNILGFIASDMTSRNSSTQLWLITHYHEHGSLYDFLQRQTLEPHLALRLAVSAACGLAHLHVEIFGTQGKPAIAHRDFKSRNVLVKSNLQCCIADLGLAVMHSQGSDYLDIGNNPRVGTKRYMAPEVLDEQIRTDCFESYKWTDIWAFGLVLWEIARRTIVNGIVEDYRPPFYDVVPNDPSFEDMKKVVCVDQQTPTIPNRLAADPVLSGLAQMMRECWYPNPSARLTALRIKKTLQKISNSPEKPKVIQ

Take `COc1cc(-c2cc(-c3cccc(O)c3)cnc2N)cc(OC)c1OC` [K02288, 3-[6-amino-5-(3,4,5-trimethoxy-phenyl)-pyridin-3-yl]-phenol]: the inhibition at 0.1 µM in [1] (0.1 µM inhibitor) is 46%; in [2] (0.1 µM inhibitor), -2%; in assay [3] (0.1 µM inhibitor) it was 0%; in assay [4] (0.1 µM inhibitor), 36%; in assay [5] (0.1 µM inhibitor), 6.1%. Besides, the inhibition at 1 µM worked out at 89% in assay [1] (1 µM inhibitor); 0.4% in [2] (1 µM inhibitor); 12% in [3] (1 µM inhibitor); 86% in assay [4] (1 µM inhibitor); 33% in [5] (1 µM inhibitor). For the same molecule, the “effect on TGF-β-induced phosphorylation of Smad2” value in assay [6] was “no effect”. Also, the “inhibition of Smad1/5/8 phosphorylation” value in [7] (50 nM, BMP6) is “near complete inhibition”. In addition, the IC50 in assay [7] (Mus musculus, read-out: IC50 against BMP6 signaling) is less than 50 nM; in assay [8], 220 nM; in assay [10] (C2C12 cells, BMP4 stimulation, read-out: apparent IC50, Smad1/5/8 phosphorylation), 100 nM; in [11], 1.8 nM and 1 to 2 nM. Besides, the “inhibition of BMP6-induced Smad1/5/8 phosphorylation” value in [7] is “potently inhibited”. For the same molecule, the “concentration at which loss of mRFP protein was evident” value in assay [9] lay in the range of 8 to 10 µM. Further, the “activity weaker than control compound LDN-193189” value in assay [10] (C2C12 cells, BMP4, P-Smad1/5/8) is 10 fold; in assay [12] (C2C12 cells, BMP4, BRE-luciferase) it was 10 fold.
In the case of `c1ccc2c(-c3cnn4cc(-c5ccc(N6CCNCC6)cc5)cnc34)ccnc2c1` [LDN-193189], in assay [6], the “effect on TGF-β-induced phosphorylation of Smad2” value is reported as “no effect”. Also, the “inhibition of BMP6-induced Smad1/5/8 phosphorylation” value in [7] was “potently inhibited”. Moreover, the IC50 in assay [8] amounted to 210 nM; in assay [10] (C2C12, read-out: apparent IC50, Smad1/5/8 phosphorylation), 10 nM; in assay [12] (Mus musculus, C2C12, read-out: IC50, BRE-luciferase), 10 nM.
